Source: PMC8719067 (Haematologica, 2021)

Tests used:
MEC-1 cells [1] = assay: cell death; assay type: cell-based; conditions: MEC-1, 1, 24 hours
[2] = system: MEC-1 cells with either wild-type or mutant BTK; assay: reverse-phase protein array; conditions: RPPA
[3] = system: BCR pathway in primary CLL cells; assay: immunoblot of BCR pathway proteins in primary CLL cells; assay type: cell-based, human; conditions: BTKWT and BTKT474F (gate-keeper mutation)
[4] = system: MEC-1 cells overexpressing BTKWT; assay: reverse-phase protein array; conditions: RPPA; for decrease in phospho-ERK: BTKWT cells
[5] = system: PLCg2 phosphorylation in Ramos Burkitt lymphoma cells; assay: phospho-PLCg2 inhibition in the Ramos cell line; assay type: cell-based; conditions: Homo sapiens, read-out: IC50 of inhibition of PLCg2 phosphorylation
MEC-1 cells [6] = assay: cell cycle profile; assay type: cell-based; conditions: MEC-1, 24 hours
B-cell malignancies = conditions: phase 1b clinical trial; cited from earlier work
[7] = system: chronic lymphocytic leukemia; conditions: patients with CLL, median of 3.4 years of follow-up; cited from earlier work
[8] = system: B-cell lines or primary CLL cells; conditions: cited from earlier work

SMILES | cell death (MEC-1 cells [1]) | S727 phosphorylation on STAT3 ([2]; WT and mutant cell lines) | Y705 phosphorylation on STAT3 ([2]; WT and mutant cell lines) | phospho-S6K ([2]; all three cell types, compared to ibrutinib) | cleaved caspase 7 ([2]; all transduced cell lines) | BCR pathway (phosphorylation of BTK, ERK, and S6) signaling [3] | decrease in phospho-ERK [4] [log] | responses for all proteins compared to those to ibrutinib ([4]; WT cells) | IC50 [5] [nM] | cell cycle profiles (MEC-1 cells [6]) | tolerability (B-cell malignancies) | cumulative incidence of progression [7] [%] | decrease in PD1 levels (ibrutinib vs vecabrutinib) [2] | cell death induced in vitro [8]
NC(=O)[C@H]1CCN(c2ncnc(N)c2F)C[C@@H]1N1CCC[C@@H](Nc2cc(Cl)cc(C(F)(F)F)c2)C1=O [vecabrutinib] | 15-20% | decreased | decreased | profoundly decreased | increased | inhibited | 2 | deeper or similar responses | 13 ± 6 | did not alter | well-tolerated | – | – | –
C=CC(=O)N1CCC[C@@H](n2nc(-c3ccc(Oc4ccccc4)cc3)c3c(N)ncnc32)C1 [ibrutinib, reference compound] | 15-20% | – | – | – | – | – | 2 | – | – | did not alter | – | 19 | larger decrease | limited
CC#CC(=O)N1CCC[C@H]1c1nc(-c2ccc(C(=O)Nc3ccccn3)cc2)c2c(N)nccn12 [acalabrutinib] | – | – | – | – | – | – | – | – | – | – | – | – | – | limited
